Literature values as cited in patent US12440482B2, “1,4-dihydropyridine compositions, methods of making and use” (American Regent, Inc., priority 2019, dated 2025).

## COC(=O)C1=C(C)NC(C)=C(C(=O)OCCN(C)Cc2ccccc2)C1c1cccc([N+](=O)[O-])c1 (stereo not shown) [nicardipine]
  solubility in water: only slightly soluble
